The assay concerns 171881-019-R-J1-PDC complex spheroid growth, % test/control. Nature of the assay: Anticancer human tumor 171881-019-R-J1-PDC patient-derived invasive breast carcinoma cell line growth inhibition [Asc]. Conditions: for viability, T/C: stronger effect = lower value. The procedure: Multicellular complex tumor spheroid response to apoptosis pathway targeting inhibitors Alrizomadlin, Pelcitoclax, and Dasminapant in combination with a variety of drugs and investigational agents in selected tumor cell lines
The MDM2 inhibitor alrizomadlin, the Bcl-2/Bcl-xL inhibitor pelcitoclax, and the IAPs inhibitor dasminapant were evaluated both individually and in combination with standard of care and investigational anticancer small molecules within a complex spheroid model of solid tumors. . Complex spheroids include a stromal component modeled by human endothelial cells (HUVEC) and fibroblasts modeled by human mesenchymal stem cells (MSCs). The concentration ranges selected for each drug and investigational agent were based upon clinically achievable concentrations if the clinical Cmax of the agent was known.
Compounds. The drugs and investigational agents: alrizomadlin (APG-115; NSC831270), pelcitoclax (APG-1252; NSC835773), dasminapant (APG-1387;NSC834197), TAK-243 (NSC785004), copanlisib (NSC809693), olaparib (NSC753686), talazoparib (NSC767125), cobimetinib (NSC 768068), eltanexor (KPT-8602, NSC 794443), abemaciclib (NSC 768073), sotorasib (NSC818433), adagrasib (NSC 831453), MRTX-1133 (NSC 836407), Iadademestat (ORY1001, NSC 806812), and RMC-4630 (NSC839698), were obtained from the NCI Developmental Therapeutics Program Chemical Repository. The FDA-approved anticancer drug set is available from the Developmental Therapeutics Program at https://dtp.cancer.gov/organization/dscb/obtaining/available plates.htm. […] The stock solutions were prepared in dimethyl sulfoxide (DMSO, Sigma-Aldrich, St. Louis, MO, cat. D2650) at 800-fold the tested concentration and stored at -70 degrees C prior to their use. All drugs and investigational agents were tested over a range starting from a high concentration at or near the clinical Cmax and decreasing in half-log increments. If the clinical Cmax for an agent had not been determined, the highest concentration tested was 10 microM.
The patient-derived cancer (PDC) cell lines include five colon adenocarcinomas: 186277-243-T-J2-PDC, 616215-338-R-J1-PDC, 439559-082-T-J2-PDC, 463943-066-T-J2-PDC, and 519858-162-T-J1-PDC; three pancreatic carcinomas: 323965-272-R-J2-PDC, 521955-158-R6-J3-PDC, and 521955-158-R2-J5-PDC; two uterine sarcomas: 327498-152-R-J2-PDC and 993429-296-R-J1-PDC; two rhabdomyosarcomas: 755483-174-R-J1-PDC and 772245-204-R-J1-PDC; two soft tissue sarcomas: 126254-015-R-J1-PDC and 494315-158-R-J1-PDC; two malignant fibrous histiocytomas: 317291-083-R-J1-PDC and 596521-263-R-J1-PDC; two breast carcinomas: 171881-019-R-J1-PDC and 885512-296-R-J2-PDC; and one ovarian carcinoma: 6556581-035-R-J-PDC were obtained from the NCI PDMR, (https://pdmr.cancer.gov). The established cell lines HSSY-2 synovial sarcoma (RRID:CVCL 8719), SYO-1 synovial sarcoma (RRID:CVCL_7146), MPNST malignant peripheral neural sheath tumor were obtained from the Sloan Kettering Institute. The following established cell lines were purchased from the American Type Culture Collection (ATCC, Manassas, VA), Sor the received from the NCI repository:, PANC-1 pancreatic carcinoma (CRL-1469, RRID:CVCL_0480), OVCAR-5 ovarian carcinoma (RRID:CVCL_1628), OVCAR-8 ovarian carcinoma (RRID:CVCL_1629), , MCF-7 breast carcinoma (CRL-12584, RRID:CVCL_0031), MDA-MB-231 breast carcinoma (CRL-12532, RRID:CVCL_0062), NCI-H1876 small cell lung carcinoma (CRL-5902, RRID:CVCL_1503), NCI-H510A small cell lung carcinoma (HTB-184, RRID:CVCL_1565), NCI-H1417 (CRL-5869, RRID:CVCL_1469), and NCI-H196 small cell lung carcinoma (CRL-5823, RRID:CVCL_1509). Dr. Peter Houghton (Greehey Children's Cancer Research Institute, University of Texas Health Science Center, San Antonio, TX) provided Rh-18 rhabdomyosarcoma (RRID:CVCL_1659). Pooled donor human umbilical vein endothelial cells (HUVEC, Lonza, cat. CC-2519) and human mesenchymal stem cells (hMSC, Lonza, cat. PT-2501) were purchased from Lonza (Walkersville, MD).
Cell Culture. […]

Setting [1] is: compound alone, run of 09/27/2022.

pIC50: −log10 of the molar value. “And” between values parts separate entries of the source, which are not always exact repeats. Identical values can stand only once.

By viability, T/C is commonly meant the ratio of treated to control. The pIC50 is −log10 of the IC50, conventionally taken in molar units.
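Wherever viability, T/C is given: spheroids exposed to compounds for 7 days.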

As to `C#Cc1c(F)ccc2cc(O)cc(-c3ncc4c(N5CC6CCC(C5)N6)nc(OCC56CCCN5CC(F)C6)nc4c3F)c12` (configuration not stated), the viability, T/C runs as follows: (compound 0.0316 µM) 105% and 82.7% and 103%; (compound 0.1 µM) 107% and 98% and 102%; (compound 0.316 µM) 129% and 115% and 117%; (compound 1 µM) 229% and 139% and 208%; (compound 3.16 µM) 271% and 153% and 240%; (compound 10 µM) 281% and 162% and 190%. Moreover, for the setting “curve of compound”, the pIC50 was less than 5.00.

In the case of `C=C(F)C(=O)N1CCN(c2nc(OCC3CCCN3C)nc3c2CCN(c2cccc4cccc(Cl)c24)C3)CC1CC#N` (configuration not stated), the viability, T/C runs as follows: (compound 0.0316 µM) 85.9% and 113% and 104%; (compound 0.1 µM) 86% and 98.9% and 99.5%; (compound 0.316 µM) 116% and 99.8% and 93.9%; (compound 1 µM) 82.4% and 111% and 84.5%; (compound 3.16 µM) 98.7% and 103% and 95.5%; (compound 10 µM) 0.42% and 0.28% and 0.66%. Moreover, the pIC50 (curve of compound) is 5.27 and 5.24 and 5.26.

As for `C=CC(=O)N1CCN(c2nc(=O)n(-c3c(C)ccnc3C(C)C)c3nc(-c4c(O)cccc4F)c(F)cc23)C(C)C1` (configuration not stated), the viability, T/C reads like this: (compound 0.0316 µM) 94.2% and 93.7% and 99.4%; (compound 0.1 µM) 95.4% and 109% and 106%; (compound 0.316 µM) 90.9% and 107% and 99.9%; (compound 1 µM) 89.2% and 92.1% and 88.4%; (compound 3.16 µM) 80.5% and 93.2% and 83.7%; (compound 10 µM) 71.1% and 78.1% and 83.2%. Where the note is “curve of compound”, the negative logarithm of the IC50 (pIC50) was less than 5.00.

Regarding `CCN1C(C(=O)NC23CCC(C(=O)O)(CC2)CC3)C(c2cccc(Cl)c2F)C2(C(=O)Nc3cc(Cl)ccc32)C12CCCCC2` (configuration not stated), the viability, T/C (compound 0.00949 µM) was 76.5% and 112%. In addition, the pIC50 reads like this: under setting [1], less than 5.52; (curve of compound) less than 5.52.

As for `CCN1CCN(Cc2ccc(Nc3ncc(F)c(-c4cc(F)c5nc(C)n(C(C)C)c5c4)n3)nc2)CC1`, the viability, T/C runs as follows: (compound 0.00316 µM) 97.1% and 108% and 114%; (compound 0.01 µM) 79.1% and 101% (2×); (compound 0.0316 µM) 97.8% and 111% and 105%; (compound 0.1 µM) 109% and 104% and 128%; (compound 0.316 µM) 110% and 120% and 131%; (compound 1 µM) 130% and 141% and 128%. Where the note is “curve of compound”, the pIC50 was less than 6.00.

With `CNC(C)C(=O)NC1CN(S(=O)(=O)c2cccc(S(=O)(=O)N3CCC4CCC(C(=O)NC(c5ccccc5)c5ccccc5)N4C(=O)C(NC(=O)C(C)NC)C3)c2)CCC2CCC(C(=O)NC(c3ccccc3)c3ccccc3)N2C1=O` (configuration not stated), the viability, T/C is, setting by setting: (compound 0.00316 µM) 102% and 97.8%; (compound 0.1 µM) 95.1% [middle of 15 runs]. Also, the pIC50 runs as follows: (compound alone, run of 10/03/2022) less than 6.00; (curve of compound) less than 6.00.

As to `COc1c(OCCCN2CCOCC2)ccc2c3n(c(=NC(=O)c4cnc(N)nc4)nc12)CCN3`, the viability, T/C is, setting by setting: (compound 0.00316 µM) 148% and 152% and 226%; (compound 0.01 µM) 115% and 134% and 153%; (compound 0.0316 µM) 50.5% and 46.9% and 61.2%; (compound 0.1 µM) 17.4% and 14.1% and 19.9%; (compound 0.316 µM) 3.09% and 3.26% and 4.21%; (compound 1 µM) 1.31% and 1.02% and 4.37%. Moreover, for the setting “curve of compound”, the pIC50 was 7.47 and 7.51 and 7.61.

Take `Cc1c(S(C)(=O)=O)c(-c2cc(F)cc(N3CCN(c4ccc(NS(=O)(=O)c5ccc(NC(CCN6CCC(C(=O)OCCCP(=O)(O)O)CC6)CSc6ccccc6)c(S(=O)(=O)C(F)(F)F)c5)cc4)CC3)c2)c(-c2ccc(Cl)cc2)n1C(C)C` (configuration not stated): the viability, T/C by setting is: (compound 0.1 µM) 98.9% [middle of 14 runs]; (compound 10 µM) 175% [middle of 14 runs]. Besides, under setting [1], the pIC50 is less than 5.00.

In the case of `Cc1nc(N2CCC3(CC2)COC(C)C3N)c(CO)nc1Sc1ccnc(N)c1Cl` (configuration not stated), the viability, T/C by setting is: (compound 0.00949 µM) 123% and 94.5% and 97.3%; (compound 0.03 µM) 137% and 100% and 92%; (compound 0.0949 µM) 214% and 125% and 157%; (compound 0.3 µM) 268% and 160% and 188%; (compound 0.949 µM) 225% and 150% and 152%; (compound 3 µM) 168% and 117% (2×). For the same compound, where the note is “curve of compound”, the pIC50 is less than 5.52.

For `Cn1ncnc1[C@H]1c2n[nH]c(=O)c3cc(F)cc(c23)N[C@@H]1c1ccc(F)cc1`, the viability, T/C is, setting by setting: (compound 0.000316 µM) 81.3% and 100% and 94.1%; (compound 0.001 µM) 86.7% and 107% and 93%; (compound 0.00316 µM) 90% and 88.5% and 79.2%; (compound 0.01 µM) 92.8% and 101% and 84.1%; (compound 0.0316 µM) 86.6% and 86.8% and 99.6%; (compound 0.1 µM) 91.4% and 81% and 106%. The negative-log IC50 (pIC50) (curve of compound) is less than 7.00.

Regarding `NC(=O)C(=Cn1cnc(-c2cc(C(F)(F)F)cc(C(F)(F)F)c2)n1)c1cncnc1`, the viability, T/C is, setting by setting: (compound 0.000949 µM) 83.2% and 95.6% and 98.7%; (compound 0.003 µM) 90.3% and 107% and 115%; (compound 0.00949 µM) 73.5% and 95.6% and 128%; (compound 0.03 µM) 44.2% and 56.6% and 124%; (compound 0.0949 µM) 7.59% and 10.6% and 19.6%; (compound 0.3 µM) 2.48% and 3.46% and 4.69%. Further, the pIC50 (curve of compound) is 7.63 and 7.45 and 7.18.

On to `NC1CCC(NC2CC2c2ccccc2)CC1` (configuration not stated), for which the viability, T/C is 97.1% and 106% and 92% (compound 0.000316 µM); 87.7% and 98.6% and 88.7% (compound 0.001 µM); 94.6% and 94.2% and 80.9% (compound 0.00316 µM); 92.8% and 95.6% and 87.6% (compound 0.01 µM); 76.2% and 94.8% and 77.5% (compound 0.0316 µM); 75.7% and 109% and 79.7% (compound 0.1 µM). Besides, the negative logarithm of the IC50 (pIC50) (curve of compound) was less than 7.00.

For the compound `O=C(c1cc(Cc2n[nH]c(=O)c3ccccc23)ccc1F)N1CCN(C(=O)C2CC2)CC1`, the viability, T/C is 88.5% and 96.6% and 106% (compound 0.0316 µM); 90.8% and 103% and 111% (compound 0.1 µM); 93.1% and 101% and 107% (compound 0.316 µM); 95.5% and 86% and 102% (compound 1 µM); 87.9% and 87.8% and 107% (compound 3.16 µM); 92.6% and 79.8% and 122% (compound 10 µM). For the same compound, the negative-log IC50 (pIC50) (curve of compound) is less than 5.00.

In the case of `O=C(c1ccc(F)c(F)c1Nc1ccc(I)cc1F)N1CC(O)([C@@H]2CCCCN2)C1`, the viability, T/C is, setting by setting: (compound 0.00316 µM) 86.7% and 86.1% and 88.1%; (compound 0.01 µM) 104% and 85.4% and 111%; (compound 0.0316 µM) 121% and 111% and 153%; (compound 0.1 µM) 150% and 136% and 218%; (compound 0.316 µM) 65.5% and 51.4% and 121%; (compound 1 µM) 32.6% and 32.5% and 58.2%. In addition, the pIC50 (curve of compound) is 6.26 and 6.46 and < 6.00.

The values above are taken from PubChem BioAssay AID1963428 (Molecular Pharmacology Branch, DTP, NCI, 2024).
